Measured values taken from US12421216B2, “Voruciclib polymorphs and methods of making and using thereof” (MEI PHARMA, INC., priority 2019, dated 2025).
Entries after “also recorded” stand apart in the source; their conditions may differ.

Assays:
[1] = Physical stability upon exposure to accelerated aging conditions (AAC, 40° C./75% RH), re-analysis by HT-XRPD; assay type: physicochemical; settings: for Physical stability upon exposure to AAC / Stable during AAC: 40° C./75% RH, 2 days; for Physical stability upon exposure to AAC: HT-XRPD before and after; for Stable during AAC: salt screen solids; for Liquid phase AAC (XRPD form after accelerated aging): solids from evaporated mother liquors of the salt screen; for Liquid phase AAC (XRPD form after accelerated aging) / Solid phase AAC (XRPD form after accelerated aging): 40° C./75% RH for 2 days, HT-XRPD; for Solid phase AAC (XRPD form after accelerated aging): precipitated solids of the salt screen, dried under vacuum at 50° C.
[2] = Solubility of salts in water and in 0.2 M phosphate buffer pH 6 at 37° C. after 4 hours (HPLC-DAD); assay type: physicochemical; settings: for pH (4 h): pH at end of equilibration
Procedure: Two sets of solubility experiments were performed. […] In the second set of solubility experiments about 5 mg of the salt was weighed in a standard 1.8 mL HPLC vial. Subsequently, aliquots of 200 μL of aqueous medium were added up to a maximum of 1 mL, while making observations regarding the dissolution behavior of the salts. The vials were left to equilibrate at 37° C. with continuous stirring (see Table 25 for details). After 4 hours the solids were separated from the liquid by centrifugation and the liquid phase was further filtrated through a […] PTFE filter to remove any particulate matter. The concentration of solute was determined by HPLC-DAD analysis. A calibration curve was made from two independent stock solutions of voruciclib prepared in acetonitrile/water. The pH was recorded at the end of the equilibration time.

[3] = 0.2 M phosphate buffer pH 6, 37° C., 4 hours
[4] = 0.2M phosphate buffer pH 6, 37° C., 4 hours, about 1 mg salt in 1 mL
[5] = 0.2M phosphate buffer pH 6, 37° C., 4 hours, about 5 mg salt in 1 mL
[6] = 0.2M phosphate buffer pH 6, 37° C., about 1 mg salt in 1 mL
[7] = 0.2M phosphate buffer pH 6, 37° C., about 5 mg salt in 1 mL
[8] = water, 37° C., 4 hours, about 1 mg salt in 1 mL
[9] = water, 37° C., 4 hours, about 5 mg salt, up to 1 mL
[10] = water, 37° C., about 1 mg salt in 1 mL
[11] = water, 37° C., about 5 mg salt, up to 1 mL

CN1CCC(c2c(O)cc(O)c3c(=O)cc(-c4ccc(C(F)(F)F)cc4Cl)oc23)C1CO.O=C(O)c1ccccc1 (centres unmarked) [Ben1]
Physical stability upon exposure to AAC [1]: physically unstable during exposure to AAC for two days and converted to Ben3 | Stable during AAC [1]: No => Ben3 | Liquid phase AAC (XRPD form after accelerated aging) [1]: Ben3

CN1CC[C@@H](c2c(O)cc(O)c3c(=O)cc(-c4ccc(C(F)(F)F)cc4Cl)oc23)[C@@H]1CO.O=S(=O)(O)c1ccccc1 [Bes1]
Physical stability upon exposure to AAC [1]: physically unstable during exposure to AAC and became less crystalline | Stable during AAC [1]: No => Am or

CN1CCC(c2c(O)cc(O)c3c(=O)cc(-c4ccc(C(F)(F)F)cc4Cl)oc23)C1CO.CN1CCC(c2c(O)cc(O)c3c(=O)cc(-c4ccc(C(F)(F)F)cc4Cl)oc23)C1CO.O=C(OC(C(=O)O)C(OC(=O)c1ccccc1)C(=O)O)c1ccccc1 (centres unmarked) [DiTr1]
Physical stability upon exposure to AAC [1]: physically stable under AAC; also recorded: physically stable upon exposure to AAC for two days | Solid phase AAC (XRPD form after accelerated aging) [1]: DiTr1 | Stable during AAC [1]: Yes | Solubility in phosphate buffer [2, 3]: 30 to 40 µg/mL | solubility [2, 4]: 30 µg/mL | solubility [2, 5]: 40 µg/mL | Form (4 h) of residual solid [2, 6]: DiTr1 | pH (4 h) [2, 6]: 6.0 | Form (4 h) of residual solid [2, 7]: DiTr1 | pH (4 h) [2, 7]: 6.3 | Dissolution behaviour in aqueous media (gelling, wettability) ([2]; salt screen, water and/or 0.2 M phosphate buffer pH 6): poor wettability | Solubility in water ([2]; water, 37° C., 4 hours): 30 to 40 µg/mL | solubility [2, 8]: 40 µg/mL | solubility [2, 9]: 30 µg/mL | Solids recovered after solubility determination in water ([2]; water, 37° C., 4 hours, XRPD): DiTr1 was recovered | pH (4 h) [2, 10]: 4.0 | Form (4 h) of residual solid [2, 11]: DiTr1 | pH (4 h) [2, 11]: 3.5

CN1CCC(c2c(O)cc(O)c3c(=O)cc(-c4ccc(C(F)(F)F)cc4Cl)oc23)C1CO.O=C(O)C=CC(=O)O (centres unmarked) [Fum1]
Solid phase AAC (XRPD form after accelerated aging) [1]: Fum1 | Stable during AAC [1]: Yes

N[C@@H](CCC(=O)O)C(=O)O [Glm0]
Solid phase AAC (XRPD form after accelerated aging) [1]: Glm0

Br.CN1CCC(c2c(O)cc(O)c3c(=O)cc(-c4ccc(C(F)(F)F)cc4Cl)oc23)C1CO (centres unmarked) [HBr1]
Physical stability upon exposure to AAC [1]: physically unstable during exposure to accelerated aging conditions and converted to HBr2 | Stable during AAC [1]: No => HBr2 | Liquid phase AAC (XRPD form after accelerated aging) [1]: HBr2

CN1CCC(c2c(O)cc(O)c3c(=O)cc(-c4ccc(C(F)(F)F)cc4Cl)oc23)C1CO.CN1CCC(c2c(O)cc(O)c3c(=O)cc(-c4ccc(C(F)(F)F)cc4Cl)oc23)C1CO.O=S(=O)(O)c1cccc2c(S(=O)(=O)O)cccc12 (centres unmarked) [Hemi-napadisylate]
Solubility pH 6 [2, 3]: 0.02 mg/mL | Solubility water ([2]; water, 37° C., 4 hours): 20 µg/mL

CN1CCC(c2c(O)cc(O)c3c(=O)cc(-c4ccc(C(F)(F)F)cc4Cl)oc23)C1CO.O=C(O)CC(O)C(=O)O (centres unmarked) [Mal1]
Stable during AAC [1]: Yes

CN1CC[C@@H](c2c(O)cc(O)c3c(=O)cc(-c4ccc(C(F)(F)F)cc4Cl)oc23)[C@@H]1CO.CN1CC[C@@H](c2c(O)cc(O)c3c(=O)cc(-c4ccc(C(F)(F)F)cc4Cl)oc23)[C@@H]1CO.O=S(=O)(O)c1cccc2c(S(=O)(=O)O)cccc12 [Nds1a]
Physical stability upon exposure to AAC [1]: stable during exposure to AAC for 2 days; also recorded: physically stable upon exposure to AAC for two days | Solid phase AAC (XRPD form after accelerated aging) [1]: Nds1a | Stable during AAC [1]: Yes | Solubility in phosphate buffer [2, 3]: 20 µg/mL | solubility [2, 4]: 20 µg/mL | solubility [2, 5]: 20 µg/mL | Solids recovered / salt dissociation after solubility determination in buffer ([2]; 0.2 M phosphate buffer pH 6, 37° C., 4 hours, XRPD): the residual solids were identical to Nds1a | Form (4 h) of residual solid [2, 6]: Free | pH (4 h) [2, 6]: 6.0 | Form (4 h) of residual solid [2, 7]: Nds1a | pH (4 h) [2, 7]: 5.9 | Solubility in water ([2]; water, 37° C., 4 hours): 20 µg/mL | solubility [2, 8]: 30 µg/mL | solubility [2, 9]: 20 µg/mL | Solids recovered after solubility determination in water ([2]; water, 37° C., 4 hours, XRPD): the residual solids were identical to Nds1a | pH (4 h) [2, 10]: 4.3 | Form (4 h) of residual solid [2, 11]: Nds1a | pH (4 h) [2, 11]: 3.4

CN1CC[C@@H](c2c(O)cc(O)c3c(=O)cc(-c4ccc(C(F)(F)F)cc4Cl)oc23)[C@@H]1CO.O=S(=O)(O)O [Sul1]
Solid phase AAC (XRPD form after accelerated aging) [1]: Sul1 | Stable during AAC [1]: Yes | Liquid phase AAC (XRPD form after accelerated aging) [1]: Sul1

CN1CCC(c2c(O)cc(O)c3c(=O)cc(-c4ccc(C(F)(F)F)cc4Cl)oc23)C1CO.CN1CCC(c2c(O)cc(O)c3c(=O)cc(-c4ccc(C(F)(F)F)cc4Cl)oc23)C1CO.O=S(=O)(O)O (centres unmarked) [Sul2]
Solid phase AAC (XRPD form after accelerated aging) [1]: Sul2 | Stable during AAC [1]: Yes

CN1CCC(c2c(O)cc(O)c3c(=O)cc(-c4ccc(C(F)(F)F)cc4Cl)oc23)C1CO.O=S(=O)(O)O (centres unmarked) [Sul4]
Stable during AAC [1]: Yes

CN1CC[C@@H](c2c(O)cc(O)c3c(=O)cc(-c4ccc(C(F)(F)F)cc4Cl)oc23)[C@@H]1CO.O=C(O)c1ccc2ccccc2c1O [Xin1]
Physical stability upon exposure to AAC [1]: physically stable during exposure to AAC | Stable during AAC [1]: Yes | Liquid phase AAC (XRPD form after accelerated aging) [1]: Xin1
